Molecules are shown by their SMILES. A value given as a limit tells only on which side of the number the result lay.

By IC50 is commonly meant the concentration needed to halve the response being measured. As usually defined, the microsomal CLint is the capacity of the preparation to metabolise the compound, expressed as a volume cleared per time. The low end stands for greater metabolic stability, the high end for faster metabolism. For orientation: fraction remaining means what is left of the initial amount, in per cent.

The target of one series is CYP3A4 (Homo sapiens, UniProt P08684). Nature of the series: biochemical.
Chain of CYP3A4 (P08684 whole entry): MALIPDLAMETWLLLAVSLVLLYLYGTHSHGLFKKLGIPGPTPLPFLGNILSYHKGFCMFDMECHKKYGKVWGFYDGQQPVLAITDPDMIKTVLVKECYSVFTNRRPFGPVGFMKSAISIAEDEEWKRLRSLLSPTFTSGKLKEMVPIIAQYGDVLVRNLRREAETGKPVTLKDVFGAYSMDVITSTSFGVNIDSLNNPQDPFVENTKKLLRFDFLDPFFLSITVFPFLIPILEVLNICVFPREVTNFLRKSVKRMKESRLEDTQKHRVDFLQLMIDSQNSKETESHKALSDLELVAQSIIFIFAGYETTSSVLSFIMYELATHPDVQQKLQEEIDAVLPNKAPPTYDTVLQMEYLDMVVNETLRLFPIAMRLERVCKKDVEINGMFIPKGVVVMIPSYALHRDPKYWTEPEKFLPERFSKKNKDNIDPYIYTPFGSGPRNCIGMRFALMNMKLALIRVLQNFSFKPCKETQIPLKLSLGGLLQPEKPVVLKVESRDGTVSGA
Conditions: not given
In turn, `CNC(=O)CC(F)(F)C(=O)N1N=C(c2c(-c3ccc(Cl)cc3)c3ccccc3[nH]c2=O)CC1c1ccc(Cl)cc1` (centres unmarked) [2q] gave an IC50 of 7.7 ± 1.7 µM.

The compound `O=C(CC(F)(F)C(=O)N1N=C(c2c(-c3ccc(Cl)cc3)c3ccccc3[nH]c2=O)CC1c1ccc(Cl)cc1)OCC1CC1` (centres unmarked) [2n] gave an IC50 of 6.7 ± 1.2 µM.

System in the next series: not listed separately
Nature of the series: Liver microsome stability, human. It counts as in vitro ADME. The note with it: human liver microsomes. The protocol: Human liver microsomes (HLMs, 20 mg/mL) and CD-1 mouse liver microsomes (MLMs, 20 mg/mL) were purchased from Xenotech. NADPH was purchased from Sigma-Aldrich and prepared in 10 mM stock solutions of distilled H2O (Invitrogen UltraPure). Verapamil and diphenhydramine were both purchased from Sigma-Aldrich and served as positive controls for HLM and MLM stability, respectively. Test compounds and positive controls were initially dissolved in DMSO to make 10 mM stock solutions. Sample solutions were then further diluted in 70% MeOH/H2O or 100% MeCN to 500 μM. Next, the reactions were prepared by mixing human or mouse liver microsomes (55 μL) with potassium phosphate buffer (100 mM, […]) in 1.5 mL Eppendorf tubes. The test compounds (6.6 μL of 500 μM solution) were subsequently added to the suspensions, and the reaction mixtures were incubated at 37 °C for 5 min. Afterward, the liver microsome reactions were initiated with 110 μL of 10 mM NADPH and further incubated at 37 °C for the designated time course of the study. This procedure provided experiments with a final volume of 1100 μL (<0.6% organic solvent content), a concentration for HLMs and MLMs of 1 mg/mL, and a final test compound concentration of 3 μM. Aliquots (100 μL) were removed from each reaction mixture in duplicate at 0, 5, 10, 15, and 30 min time intervals and quenched with 100 μL of cold internal standard solution (ISTD, 2 μM 7-ethoxy-d5-coumarin in MeOH or MeCN). Quenched aliquots were then centrifuged at 12 500 g for 5–10 min, and the resulting supernatants were withdrawn and placed in LC-MS vials to be analyzed by LC-MS/MS (Agilent G6460C QQQ MS coupled with an Infinity II 1260 HPLC). Each test compound was run in tandem with positive and negative control experiments for quality assurance. Positive control reactions were conducted at a final volume of 550 μL for a single run at each time point. Lastly, the negative control experiment was conducted with test compounds and liver microsomes in the absence of NADPH (150 μL) and analyzed at the 30 min time point.
(§1) For both LM and plasma assays, each data point was analyzed in triplicate using between blank washes to avoid carry over and to equilibrate the column for the subsequent runs. Averages of these triplicates for individual compounds at each time point were then normalized to the data at 0 min, representing 100% of the test compound remaining or 0% metabolism. Half-lives (t1/2) were calculated by plotting ln of % test compound remaining versus time and performing linear regression to determine slope. Slope = −k and t1/2 = 0.693/k for first-order kinetics (see Figures S5 and S6 for a representative example).
For orientation: Liver microsomes are a subcellular fraction often used to study metabolism.
Take `CNC(=O)CC(F)(F)C(=O)N1N=C(c2c(-c3ccc(Cl)cc3)c3ccccc3[nH]c2=O)CC1c1ccc(Cl)cc1` (centres unmarked) [2q]: the microsomal CLint at 3 μM came to 104 µL/min/mg.

`O=C(CC(F)(F)C(=O)N1N=C(c2c(-c3ccc(Cl)cc3)c3ccccc3[nH]c2=O)CC1c1ccc(Cl)cc1)OCC1CC1` (centres unmarked) [2n]: the microsomal CLint at 3 μM was 289 µL/min/mg.

Still in this series, the particulars now being: liver microsomes, incubation up to 30 min, 3 μM, read-out: liver microsome stability T1/2, human.
As for `CNC(=O)CC(F)(F)C(=O)N1N=C(c2c(-c3ccc(Cl)cc3)c3ccccc3[nH]c2=O)CC1c1ccc(Cl)cc1` (centres unmarked) [2q], the half-life at 3 μM was at most 7 min.

Turning to `O=C(CC(F)(F)C(=O)N1N=C(c2c(-c3ccc(Cl)cc3)c3ccccc3[nH]c2=O)CC1c1ccc(Cl)cc1)OCC1CC1` (centres unmarked) [2n], the half-life at 3 μM was 2.4 min.

For another series, the target named is T1, CYP2D6 (Homo sapiens, UniProt P10635).
T1 construct: purchased Corning; host or cells: insect cells (microsomes)
T1 sequence (P10635 whole entry): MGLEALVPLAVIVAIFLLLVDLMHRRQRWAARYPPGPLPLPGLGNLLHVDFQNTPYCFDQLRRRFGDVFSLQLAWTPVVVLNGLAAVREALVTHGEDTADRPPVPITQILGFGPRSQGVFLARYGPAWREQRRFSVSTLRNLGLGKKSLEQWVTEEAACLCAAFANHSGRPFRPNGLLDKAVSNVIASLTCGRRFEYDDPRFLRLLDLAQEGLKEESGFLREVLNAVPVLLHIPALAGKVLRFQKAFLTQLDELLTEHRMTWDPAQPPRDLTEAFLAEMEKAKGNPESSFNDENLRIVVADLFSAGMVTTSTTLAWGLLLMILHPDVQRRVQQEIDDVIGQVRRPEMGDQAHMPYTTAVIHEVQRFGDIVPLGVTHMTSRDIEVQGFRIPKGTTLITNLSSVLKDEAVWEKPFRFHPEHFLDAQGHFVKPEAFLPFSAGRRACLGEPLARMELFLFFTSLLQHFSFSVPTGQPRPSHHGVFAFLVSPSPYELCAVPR
The series is described as follows: Fluorometric CYP450 enzyme inhibition assay, CYP2D6. It counts as in vitro ADME. The note with it: n = 2 (2k n = 4).
Experimental: CYP450 inhibition assays utilized microsomes from insect cells that express recombinant human CYP2D6 and CYP3A4 isoforms (Corning) with substrates of CYP2D6 (3-[2-(N,N-diethyl-N-methylammonium)-ethyl]-7-methoxy-4-methylcoumarin iodide, AMMC) and CYP3A4 (7-benzyloxy-4-trifluoromethylcoumarin, BFC) capable of producing fluorescent metabolites.[51],[52] […] A 100 mM sodium phosphate buffer was prepared and adjusted to a pH 7.4. In a separate falcon tube, a 2× enzyme–substrate (E–S) solution was prepared in phosphate buffer. The final concentrations of CYP2D6 and AMMC were 10 nM and 4 μM, respectively. The final concentrations of CYP3A4 and BFC were 20 nM and 40 μM, respectively. In a separate falcon tube, 2X solutions of the NADPH regenerating system (NRS) were prepared in phosphate buffer. The final concentrations for each NRS component in the corresponding assays were as follows: (1) CYP2D6 assay = 0.008 mM NADPH, 3.3 mM glucose-6-phosphate, and 0.4 U of glucose-6-phosphate dehydrogenase/mL and (2) CYP3A4 assay = 2.45 mM NADPH, 24.7 mM glucose-6-phosphate, and 1.25 U of glucose-6-phosphate dehydrogenase/mL.
Both enzymatic assays were conducted in a 96-well microtiter plate (Black, Corning Costar) with a final volume of 100 μL per well. Preparation of each plate began with the addition of 74 μL of the 2× E–S solution in the first well and 50 μL to all remaining wells (2–11) in the same row. […] 3-Fold serial dilutions of the test compounds were subsequently conducted by removing 25 μL from the first well and adding it to the second, followed by removing 25 μL from the second well and adding it to the third, and so forth until the 10th row. This procedure provided final concentrations for the test compound ranging from 100 to 0.01 μM across the same row (50 μL total for each well). Well 11 contained no test compound (0% inhibition and 100% activity). Well 12 contained 50 μL of substrate and test compound (100 μM) absent from the enzyme (0% activity, 100% inhibition). Wells 11 and 12 were used as controls for background fluorescence as described below. Each plate was then incubated for 30 min at 37 °C. After incubation was complete, reactions were initiated by the addition of 50 μL of 2X NRS to wells 1–12 (final well volume of 100 μL). Fluorescence measurements were immediately (<1 min) taken using a microplate reader (BioTek Synergy Neo 2). CYP2D6 was monitored at Ex/Em = 410/460 nm, and CYP3A4 was monitored at Ex/Em = 410/538 nm. Next, measurements were conducted in kinetic mode with scans every 5 min for 60 min. Two time points (30 and 60 min) were then chosen in the linear phase of the kinetic graph (reaction progression curve), and the corresponding relative fluorescence units (RFUs) at these time points were used to determine the rate of change in fluorescence according to the following equations [drawing 6] 3 [drawing 7] 4 [drawing 8] 5 where eq 3 defines the difference in RFUs between the 60 and 30 min time points, eq 4 normalizes the background-adjusted ΔRFU to no inhibitor control, and eq 5 converts % inhibition to % activity.
The resulting data were then exported and analyzed using Graph Pad Prism v7. The concentration of each test compound required to inhibit 50% substrate metabolism (IC50) was subsequently calculated from the resulting 10-point concentration–response curves (normalized fluorescence versus log[inhibitor]) using four-parameter logistic nonlinear regression (see Figure S4B for a representative example).
As to `CNC(=O)CC(F)(F)C(=O)N1N=C(c2c(-c3ccc(Cl)cc3)c3ccccc3[nH]c2=O)CC1c1ccc(Cl)cc1` (centres unmarked) [2q], the half-maximal inhibitory concentration (IC50) is above 20 µM.

`O=C(CC(F)(F)C(=O)N1N=C(c2c(-c3ccc(Cl)cc3)c3ccccc3[nH]c2=O)CC1c1ccc(Cl)cc1)OCC1CC1` (centres unmarked) [2n] yielded an IC50 above 20 µM.

System in another series: not listed separately
The series is described as follows: Plasma stability, mouse. The note with it: male, BALB/C, mouse, mouse plasma; incubation up to 120 min; 3 μM; read-out: plasma stability T1/2, mouse. It counts as in vitro ADME. The method, then: Human plasma (lithium heparin (LiHep) mixed, gender pooled, 0.2 μm filtered) and mouse plasma (BALB/C, LiHep mixed, male pooled, 0.2 μm filtered) were purchased from BioIVT. Procaine (Sigma-Aldrich) served as a positive control for both human and mouse plasma experiments. Test compounds and positive controls were initially dissolved in DMSO to make 10 mM stock solutions. The solutions of test and control compounds were then further diluted in 70% MeOH/H2O or 100% MeCN to 500 μM. Next, the human or mouse plasma (994 μL) was aliquoted into 1.5 mL Eppendorf tubes with duplicates (reactions A and B) being prepared for each compound. The plasma was then incubated at 37 °C for 10 min. Afterward, the reaction was initiated by the addition of the test compound (6 μL of 500 μM solution) and further incubated at 37 °C for the designated time course of the study. This procedure provided duplicate experiments with a final volume of 1000 μL (<0.6% organic solvent content) and a final test compound concentration of 3 μM. Aliquots (100 μL) were removed from each reaction mixture at 0, 15, 30, 60, and 120 min time intervals and quenched with 150 μL of cold ISTD solution (2 μM 7-ethoxy-d5-coumarin in MeOH or MeCN). Quenched aliquots were then centrifuged at 15,000 g for 30–45 min, and the resulting supernatants (∼70 μL) were withdrawn and placed in LC-MS vials to be analyzed by LC-MS/MS (Agilent G6460C QQQ MS coupled with an Infinity II 1260 HPLC). Each test compound was run in tandem with positive and negative control experiments for quality assurance. The positive control reaction was conducted at a final volume of 1000 μL for a single run at each time point. Finally, the negative control experiment was conducted with test compounds in DPBS (143 μL) and analyzed at the 120 min time point.
as §1
As for `CNC(=O)CC(F)(F)C(=O)N1N=C(c2c(-c3ccc(Cl)cc3)c3ccccc3[nH]c2=O)CC1c1ccc(Cl)cc1` (centres unmarked) [2q], the half-life at 3 μM was above 120 min.

`O=C(CC(F)(F)C(=O)N1N=C(c2c(-c3ccc(Cl)cc3)c3ccccc3[nH]c2=O)CC1c1ccc(Cl)cc1)OCC1CC1` (centres unmarked) [2n]: the half-life at 3 μM was found to be 1.3 min.

System in the next series: not listed separately
Nature of the series: Brain homogenate tissue binding and stability (RED device). It counts as in vitro ADME, mouse. The settings on record: C57BL/6, mouse, brain homogenate (4 times diluted), pH 7.4; starting concentration 5 μM; 4 h. The protocol:
Carbamazepine (Apin Chemicals) served as a positive control for brain tissue binding. Test compounds and the positive control were initially dissolved in DMSO to make 1 mM stock solutions. […] A rapid equilibrium dialysis (RED) device (Thermo Scientific) containing a dialysis membrane with a molecular weight cutoff of 8000 Da was used to assess tissue binding and metabolic stability. […] The test compounds and positive control (200 μL of 5 μM solution) were added to the red chamber of the dialysis insert, while the white chamber was filled with dialysis buffer (350 μL). The RED device was then sealed with an adhesive film and incubated at 37 °C with shaking (300 rpm) for 4 h. For the initial time point (t = 0 min), 50 μL aliquots of test compounds and the positive control were added to 96-deep well plates (0.7 mL per well) and quenched with 400 μL of MeCN. Following dialysis, another 50 μL aliquot of the tested samples was removed from each well (brain homogenate and buffer) and diluted with an equal volume of the opposite matrix to nullify any matrix effects. […] The supernatant (100 μL) was subsequently transferred to 96-deep well plates for LC-MS/MS analysis. Prodrug metabolism and 2i concentrations were determined by fit-for-purpose LC-MS/MS methods on a nine-point calibration curve ranging from 0.12 to 7.5 μM.
`CNC(=O)CC(F)(F)C(=O)N1N=C(c2c(-c3ccc(Cl)cc3)c3ccccc3[nH]c2=O)CC1c1ccc(Cl)cc1` (centres unmarked) [2q]: the amount remaining at 4 h, 5 µM amounted to 33%.

`O=C(CC(F)(F)C(=O)N1N=C(c2c(-c3ccc(Cl)cc3)c3ccccc3[nH]c2=O)CC1c1ccc(Cl)cc1)OCC1CC1` (centres unmarked) [2n]: the share remaining at 4 h, 5 µM stood at 25%.

The same series, now with this note: C57BL/6, pH 7.4; mouse brain tissue binding, RED, 4 h.
For the compound `CNC(=O)CC(F)(F)C(=O)N1N=C(c2c(-c3ccc(Cl)cc3)c3ccccc3[nH]c2=O)CC1c1ccc(Cl)cc1` (centres unmarked) [2q], the recovery at 4 h, 5 μM worked out at 30%.

Take `O=C(CC(F)(F)C(=O)N1N=C(c2c(-c3ccc(Cl)cc3)c3ccccc3[nH]c2=O)CC1c1ccc(Cl)cc1)OCC1CC1` (centres unmarked) [2n]: the recovery at 4 h, 5 μM turned out to be 29%.

Staying with this series, now noted: brain homogenate chamber after 4 h dialysis.
`CNC(=O)CC(F)(F)C(=O)N1N=C(c2c(-c3ccc(Cl)cc3)c3ccccc3[nH]c2=O)CC1c1ccc(Cl)cc1` (centres unmarked) [2q]: the “Average 2i Concentration, Brain_Mice” value is recorded as “BLQ”.

Staying with this series, now noted: brain homogenate stability sample, 0 h.
`CNC(=O)CC(F)(F)C(=O)N1N=C(c2c(-c3ccc(Cl)cc3)c3ccccc3[nH]c2=O)CC1c1ccc(Cl)cc1` (centres unmarked) [2q]: the “Average 2i Concentration, Brain_St_0Hr_Mice” value was “BLQ”.

Turning to `O=C(CC(F)(F)C(=O)N1N=C(c2c(-c3ccc(Cl)cc3)c3ccccc3[nH]c2=O)CC1c1ccc(Cl)cc1)OCC1CC1` (centres unmarked) [2n], the “Average 2i Concentration, Brain_St_0Hr_Mice” value is “BLQ”.

Staying with this series, now noted: brain homogenate stability sample, 4 h.
Regarding `CNC(=O)CC(F)(F)C(=O)N1N=C(c2c(-c3ccc(Cl)cc3)c3ccccc3[nH]c2=O)CC1c1ccc(Cl)cc1` (centres unmarked) [2q], the “Average 2i Concentration, Brain_St_4Hr_Mice” value was “BLQ”.

The same series, now with this note: buffer chamber after 4 h dialysis.
Turning to `CNC(=O)CC(F)(F)C(=O)N1N=C(c2c(-c3ccc(Cl)cc3)c3ccccc3[nH]c2=O)CC1c1ccc(Cl)cc1` (centres unmarked) [2q], the “Average 2i Concentration, Buffer_Mice” value is “BLQ”.

As for `O=C(CC(F)(F)C(=O)N1N=C(c2c(-c3ccc(Cl)cc3)c3ccccc3[nH]c2=O)CC1c1ccc(Cl)cc1)OCC1CC1` (centres unmarked) [2n], the “Average 2i Concentration, Buffer_Mice” value was “BLQ”.
